From PubChem BioAssay AID1259407 (Chemical Carcinogenesis Research Information System (CCRIS), 2018)
Activity calls are given as the source filed them. No rule for the calls is given here.

System: CCRIS mutagenicity, Ames/micronucleus/aberration tests
Assay: CCRIS mutagenicity studies
[1] = Test System: AMES SALMONELLA TYPHIMURIUM, Strain/Indicator: TA98, Metabolic Activation: NONE, Method: STANDARD PLATE
[2] = Test System: AMES SALMONELLA TYPHIMURIUM, Strain/Indicator: TA98, Metabolic Activation: RAT, LIVER, S-9, AROCLOR 1254, Method: STANDARD PLATE
[3] = Test System: AMES SALMONELLA TYPHIMURIUM, Strain/Indicator: TA100, Metabolic Activation: NONE, Method: STANDARD PLATE
[4] = Test System: AMES SALMONELLA TYPHIMURIUM, Strain/Indicator: TA100, Metabolic Activation: RAT, LIVER, S-9, AROCLOR 1254, Method: STANDARD PLATE
[5] = Test System: AMES SALMONELLA TYPHIMURIUM, Strain/Indicator: TA1535, Metabolic Activation: NONE, Method: STANDARD PLATE
[6] = Test System: AMES SALMONELLA TYPHIMURIUM, Strain/Indicator: TA1535, Metabolic Activation: RAT, LIVER, S-9, AROCLOR 1254, Method: STANDARD PLATE
[7] = Test System: AMES SALMONELLA TYPHIMURIUM, Strain/Indicator: TA1537, Metabolic Activation: NONE, Method: STANDARD PLATE
[8] = Test System: AMES SALMONELLA TYPHIMURIUM, Strain/Indicator: TA1537, Metabolic Activation: RAT, LIVER, S-9, AROCLOR 1254, Method: STANDARD PLATE

Measured: mutagenic call

O=S(=O)(Nc1ccc(Cl)cc1)c1cccc2cccnc12
inactive: [1] inactive; negative | [2] inactive; negative | [3] inactive; negative | [4] inactive; negative | [5] inactive; negative | [6] inactive; negative | [7] inactive; negative | [8] inactive; negative

Nc1c(S(=O)(=O)O)cc(NC2CCCCC2)c2c1C(=O)c1ccccc1C2=O
inactive: [1] inactive; negative | [2] inactive; negative | [3] inactive; negative | [4] inactive; negative | [5] inactive; negative | [6] inactive; negative | [7] inactive; negative | [8] inactive; negative | Test System: AMES SALMONELLA TYPHIMURIUM, Strain/Indicator: TA1538, Metabolic Activation: NONE, Method: STANDARD PLATE inactive; negative | Test System: AMES SALMONELLA TYPHIMURIUM, Strain/Indicator: TA1538, Metabolic Activation: RAT, LIVER, S-9, AROCLOR 1254, Method: STANDARD PLATE inactive; negative

CCC(C)Nc1ccc(NC(C)CC)cc1 (configuration not stated)
inactive: End Point: IN VITRO CHROMOSOMAL ABERRATIONS, Test System: CHINESE HAMSTER LUNG CELLS (CHL), Metabolic Activation: RAT, LIVER, S-9, KC-400 inactive; negative | End Point: IN VITRO CHROMOSOMAL ABERRATIONS, Test System: CHINESE HAMSTER OVARY CELLS (CHO), Metabolic Activation: NONE inactive; negative | End Point: IN VITRO CHROMOSOMAL ABERRATIONS, Test System: CHINESE HAMSTER OVARY CELLS (CHO), Metabolic Activation: RAT, LIVER, S-9, AROCLOR 1254 inactive; negative | Test System: AMES SALMONELLA TYPHIMURIUM, Strain/Indicator: TA97, Metabolic Activation: HAMSTER, LIVER, S-9, AROCLOR 1254 (10%), Method: PREINCUBATION inactive; negative | Test System: AMES SALMONELLA TYPHIMURIUM, Strain/Indicator: TA97, Metabolic Activation: HAMSTER, LIVER, S-9, AROCLOR 1254 (30%), Method: PREINCUBATION inactive; negative | Test System: AMES SALMONELLA TYPHIMURIUM, Strain/Indicator: TA97, Metabolic Activation: NONE, Method: PREINCUBATION inactive; negative | Test System: AMES SALMONELLA TYPHIMURIUM, Strain/Indicator: TA97, Metabolic Activation: RAT, LIVER, S-9, AROCLOR 1254 (10%), Method: PREINCUBATION inactive; negative | Test System: AMES SALMONELLA TYPHIMURIUM, Strain/Indicator: TA97, Metabolic Activation: RAT, LIVER, S-9, AROCLOR 1254 (30%), Method: PREINCUBATION inactive; negative | Test System: AMES SALMONELLA TYPHIMURIUM, Strain/Indicator: TA98, Metabolic Activation: HAMSTER, LIVER, S-9, AROCLOR 1254 (10%), Method: PREINCUBATION inactive; negative | Test System: AMES SALMONELLA TYPHIMURIUM, Strain/Indicator: TA98, Metabolic Activation: HAMSTER, LIVER, S-9, AROCLOR 1254 (30%), Method: PREINCUBATION inactive; negative | Test System: AMES SALMONELLA TYPHIMURIUM, Strain/Indicator: TA98, Metabolic Activation: NONE, Method: PREINCUBATION inactive; negative | Test System: AMES SALMONELLA TYPHIMURIUM, Strain/Indicator: TA98, Metabolic Activation: RAT, LIVER, S-9, AROCLOR 1254 (10%), Method: PREINCUBATION inactive; negative | Test System: AMES SALMONELLA TYPHIMURIUM, Strain/Indicator: TA98, Metabolic Activation: RAT, LIVER, S-9, AROCLOR 1254 (30%), Method: PREINCUBATION inactive; negative | Test System: AMES SALMONELLA TYPHIMURIUM, Strain/Indicator: TA100, Metabolic Activation: HAMSTER, LIVER, S-9, AROCLOR 1254 (5%), Method: PREINCUBATION inactive; negative | Test System: AMES SALMONELLA TYPHIMURIUM, Strain/Indicator: TA100, Metabolic Activation: HAMSTER, LIVER, S-9, AROCLOR 1254 (10%), Method: PREINCUBATION inactive; negative | Test System: AMES SALMONELLA TYPHIMURIUM, Strain/Indicator: TA100, Metabolic Activation: HAMSTER, LIVER, S-9, AROCLOR 1254 (30%), Method: PREINCUBATION inactive; negative | Test System: AMES SALMONELLA TYPHIMURIUM, Strain/Indicator: TA100, Metabolic Activation: NONE, Method: PREINCUBATION inactive; negative | Test System: AMES SALMONELLA TYPHIMURIUM, Strain/Indicator: TA100, Metabolic Activation: RAT, LIVER, S-9, AROCLOR 1254 (5%), Method: PREINCUBATION inactive; negative | Test System: AMES SALMONELLA TYPHIMURIUM, Strain/Indicator: TA100, Metabolic Activation: RAT, LIVER, S-9, AROCLOR 1254 (30%), Method: PREINCUBATION inactive; negative | Test System: AMES SALMONELLA TYPHIMURIUM, Strain/Indicator: TA100, Metabolic Activation: RAT,LIVER, S-9, AROCLOR 1254 (10%), Method: PREINCUBATION inactive; negative | Test System: AMES SALMONELLA TYPHIMURIUM, Strain/Indicator: TA1535, Metabolic Activation: HAMSTER, LIVER, S-9, AROCLOR 1254 (10%), Method: PREINCUBATION inactive; negative | Test System: AMES SALMONELLA TYPHIMURIUM, Strain/Indicator: TA1535, Metabolic Activation: HAMSTER, LIVER, S-9, AROCLOR 1254 (30%), Method: PREINCUBATION inactive; negative | Test System: AMES SALMONELLA TYPHIMURIUM, Strain/Indicator: TA1535, Metabolic Activation: NONE, Method: PREINCUBATION inactive; negative | Test System: AMES SALMONELLA TYPHIMURIUM, Strain/Indicator: TA1535, Metabolic Activation: RAT, LIVER, S-9, AROCLOR 1254 (10%), Method: PREINCUBATION inactive; negative | Test System: AMES SALMONELLA TYPHIMURIUM, Strain/Indicator: TA1535, Metabolic Activation: RAT, LIVER, S-9, AROCLOR 1254 (30%), Method: PREINCUBATION inactive; negative

O=S(=O)(c1ccc(Cl)cc1)c1cc(Cl)c(Cl)cc1Cl
inactive: End Point: In vivo chromosomal aberrations, Test System: Bone marrow cells, Species: Rat, Strain/Sex: Wistar/Female, Route: Oral inactive; negative | Test System: AMES SALMONELLA TYPHIMURIUM, Strain/Indicator: TA97A, Metabolic Activation: NONE, Method: STANDARD PLATE inactive; negative | Test System: AMES SALMONELLA TYPHIMURIUM, Strain/Indicator: TA97A, Metabolic Activation: RAT, LIVER, S-9, AROCLOR 1254, Method: STANDARD PLATE inactive; negative | [1] inactive; negative | [2] inactive; negative | [3] inactive; negative | [4] inactive; negative | Test System: AMES SALMONELLA TYPHIMURIUM, Strain/Indicator: TA102, Metabolic Activation: NONE, Method: STANDARD PLATE inactive; negative | Test System: AMES SALMONELLA TYPHIMURIUM, Strain/Indicator: TA102, Metabolic Activation: RAT, LIVER, S-9, AROCLOR 1254, Method: STANDARD PLATE inactive; negative
